Test results reported in paper PMC5218480 (PLoS ONE, 2017).

Tested on: MV-4-11 cells
Assay: Gene expression microarray analysis (Affymetrix PrimeView) and GSEA
Assay type: cell-based, human
Design: RFU PODN (11730768_x_at) / Fold change /veh PODN (11730768_x_at) / RFU LINC00158 (11744669_a_at) / Fold change /veh LINC00158 (11744669_a_at) / RFU DUSP10 (11751237_a_at) / Fold change /veh DUSP10 (11751237_a_at) / RFU ID3 (11757404_x_at) / Fold change /veh ID3 (11757404_x_at) / RFU PLEKHG5 (11737974_s_at) / Fold change /veh PLEKHG5 (11737974_s_at) / RFU LRRC4B (11730491_at) / Fold change /veh LRRC4B (11730491_at) / RFU GIMAP4 (11747438_a_at) / Fold change /veh GIMAP4 (11747438_a_at) / RFU KRT8 (11758183_x_at) / Fold change /veh KRT8 (11758183_x_at) / RFU CNN1 (11734310_a_at) / Fold change /veh CNN1 (11734310_a_at) / RFU VPS37D (11726825_at) / Fold change /veh VPS37D (11726825_at) / RFU C10orf10 (11716522_x_at) / Fold change /veh C10orf10 (11716522_x_at) / RFU KIR2DL2 /// KIR2DL4 /// KIR2DL5A /// KIR2DL5B /// KIR2DS1 /// KIR2DS2 /// KIR2DS3 /// KIR2DS4 /// KIR3DL3 /// KIR3DL3 /// KIR3DS1 (11738374_at) / Fold change /veh KIR2DL2 /// KIR2DL4 /// KIR2DL5A /// KIR2DL5B /// KIR2DS1 /// KIR2DS2 /// KIR2DS3 /// KIR2DS4 /// KIR3DL3 /// KIR3DL3 /// KIR3DS1 (11738374_at) / RFU C1QL1 (11718748_at) / Fold change /veh C1QL1 (11718748_at) / RFU TMPRSS4 (11747572_a_at) / Fold change /veh TMPRSS4 (11747572_a_at) / RFU HAMP (11756126_x_at) / Fold change /veh HAMP (11756126_x_at) / RFU RNFT2 (11725882_a_at) / Fold change /veh RNFT2 (11725882_a_at) / RFU NR4A2 (11747474_a_at) / Fold change /veh NR4A2 (11747474_a_at) / RFU ABCC12 (11746883_a_at) / Fold change /veh ABCC12 (11746883_a_at) / RFU TMEM136 (11760407_x_at) / Fold change /veh TMEM136 (11760407_x_at) / RFU CLDN22 /// WWC2 (11732394_at) / Fold change /veh CLDN22 /// WWC2 (11732394_at) / RFU HLA-DPB1 (11760878_x_at) / Fold change /veh HLA-DPB1 (11760878_x_at) / RFU SPINT1 (11716480_a_at) / Fold change /veh SPINT1 (11716480_a_at) / RFU GAP43 (11754022_s_at) / Fold change /veh GAP43 (11754022_s_at) / RFU A4GNT (11735810_at) / Fold change /veh A4GNT (11735810_at) / RFU PRB3 (11715151_x_at) / Fold change /veh PRB3 (11715151_x_at) / RFU TUBB4B (11761932_at) / Fold change /veh TUBB4B (11761932_at) / RFU CAPN14 (11732068_a_at) / Fold change /veh CAPN14 (11732068_a_at) / RFU TMCC2 (11721928_a_at) / Fold change /veh TMCC2 (11721928_a_at) / RFU IRGQ (11745062_a_at) / Fold change /veh IRGQ (11745062_a_at) / RFU FAM174B (11720279_a_at) / Fold change /veh FAM174B (11720279_a_at) / RFU TMPRSS4 (11748680_a_at) / Fold change /veh TMPRSS4 (11748680_a_at) / RFU FAM212B (11763350_a_at) / Fold change /veh FAM212B (11763350_a_at) / RFU PLEKHG5 (11743358_a_at) / Fold change /veh PLEKHG5 (11743358_a_at) / RFU ZSCAN30 (11745921_a_at) / Fold change /veh ZSCAN30 (11745921_a_at) / RFU CMKLR1 (11741424_a_at) / Fold change /veh CMKLR1 (11741424_a_at) / RFU LOC101060620 /// MAPK8IP1 (11723275_at) / Fold change /veh LOC101060620 /// MAPK8IP1 (11723275_at) / RFU SPTSSB (11747773_x_at) / Fold change /veh SPTSSB (11747773_x_at) / RFU PRSS12 (11739890_at) / Fold change /veh PRSS12 (11739890_at) / RFU BIN1 (11741810_x_at) / Fold change /veh BIN1 (11741810_x_at) / RFU WNT11 (11732464_a_at) / Fold change /veh WNT11 (11732464_a_at) / RFU C10orf10 (11716521_a_at) / Fold change /veh C10orf10 (11716521_a_at) / RFU C5orf56 (11738089_at) / Fold change /veh C5orf56 (11738089_at) / RFU CYB561 (11721691_x_at) / Fold change /veh CYB561 (11721691_x_at) / RFU ANKRD19P (11752326_a_at) / Fold change /veh ANKRD19P (11752326_a_at) / RFU OR2T12 /// OR2T33 /// OR2T8 (11738714_s_at) / Fold change /veh OR2T12 /// OR2T33 /// OR2T8 (11738714_s_at) / RFU VCAN (11748164_a_at) / Fold change /veh VCAN (11748164_a_at) / RFU JSRP1 (11732532_at) / Fold change /veh JSRP1 (11732532_at) / RFU KRTAP10-11 (11738290_x_at) / Fold change /veh KRTAP10-11 (11738290_x_at) / RFU MYO3A (11730013_a_at) / Fold change /veh MYO3A (11730013_a_at) / RFU EBF3 (11725865_a_at) / Fold change /veh EBF3 (11725865_a_at) / RFU CAMK2N1 (11719241_x_at) / Fold change /veh CAMK2N1 (11719241_x_at) / RFU C5orf56 (11738088_a_at) / Fold change /veh C5orf56 (11738088_a_at) / RFU OLFML3 (11715873_a_at) / Fold change /veh OLFML3 (11715873_a_at) / RFU LOC100653217 /// NTM (11731650_a_at) / Fold change /veh LOC100653217 /// NTM (11731650_a_at) / RFU MAPK11 (11762145_a_at) / Fold change /veh MAPK11 (11762145_a_at) / RFU FIZ1 (11724087_x_at) / Fold change /veh FIZ1 (11724087_x_at) / RFU OASL (11726364_x_at) / Fold change /veh OASL (11726364_x_at) / RFU SOX15 (11748057_x_at) / Fold change /veh SOX15 (11748057_x_at) / RFU CD79A (11719716_a_at) / Fold change /veh CD79A (11719716_a_at) / RFU HIST1H1D (11736915_at) / Fold change /veh HIST1H1D (11736915_at) / RFU CASKIN2 (11723855_a_at) / Fold change /veh CASKIN2 (11723855_a_at) / RFU LOC730098 (11760151_x_at) / Fold change /veh LOC730098 (11760151_x_at) / RFU OR4N2 (11742367_at) / Fold change /veh OR4N2 (11742367_at) / RFU PRRT2 (11749266_a_at) / Fold change /veh PRRT2 (11749266_a_at) / RFU SNX32 (11753110_a_at) / Fold change /veh SNX32 (11753110_a_at) / RFU CDHR5 (11726645_a_at) / Fold change /veh CDHR5 (11726645_a_at) / RFU RCAN1 (11760418_a_at) / Fold change /veh RCAN1 (11760418_a_at) / RFU FAM167A (11723789_a_at) / Fold change /veh FAM167A (11723789_a_at) / RFU FAM26E (11764081_at) / Fold change /veh FAM26E (11764081_at) / RFU ISYNA1 (11749810_s_at) / Fold change /veh ISYNA1 (11749810_s_at) / RFU ACY1 (11761880_at) / Fold change /veh ACY1 (11761880_at) / RFU 11764098_at / Fold change /veh 11764098_at / RFU SAMD14 (11745864_x_at) / Fold change /veh SAMD14 (11745864_x_at) / RFU NPB (11741838_a_at) / Fold change /veh NPB (11741838_a_at) / RFU TMPRSS6 (11731388_a_at) / Fold change /veh TMPRSS6 (11731388_a_at) / RFU KRTAP10-2 (11738614_at) / Fold change /veh KRTAP10-2 (11738614_at) / RFU ARHGAP8 /// PRR5-ARHGAP8 (11727945_x_at) / Fold change /veh ARHGAP8 /// PRR5-ARHGAP8 (11727945_x_at) / RFU KRTAP5-7 /// NADSYN1 (11734609_at) / Fold change /veh KRTAP5-7 /// NADSYN1 (11734609_at) / RFU RASL12 (11751679_a_at) / Fold change /veh RASL12 (11751679_a_at) / RFU CDKN2B (11736163_a_at) / Fold change /veh CDKN2B (11736163_a_at) / RFU PRF1 (11729649_at) / Fold change /veh PRF1 (11729649_at) / RFU, ZNF638 /// ZNF638-IT1 / Fold change vs veh, ZNF638 /// ZNF638-IT1 / RFU, PANK3 / Fold change vs veh, PANK3 / RFU, SH3YL1 / Fold change vs veh, SH3YL1 / RFU, ZEB2 / Fold change vs veh, ZEB2 / RFU, NRIP1 / Fold change vs veh, NRIP1 / RFU, PTTG1IP / Fold change vs veh, PTTG1IP / RFU, CAPN2 / Fold change vs veh, CAPN2 / RFU, MED14 / Fold change vs veh, MED14 / RFU, SNORA58 / Fold change vs veh, SNORA58 / RFU, C1orf63 / Fold change vs veh, C1orf63 / RFU, LRRFIP1 / Fold change vs veh, LRRFIP1 / RFU, NDUFAF7 / Fold change vs veh, NDUFAF7 / RFU, SLC12A2 / Fold change vs veh, SLC12A2 / RFU, IBTK / Fold change vs veh, IBTK / RFU, ESF1 / Fold change vs veh, ESF1 / Fold change vs veh, TMEM50B / RFU, TAOK1 / Fold change vs veh, TAOK1 / RFU, ACBD3 / Fold change vs veh, ACBD3 / RFU, TMA16 / Fold change vs veh, TMA16 / RFU, RWDD3 / Fold change vs veh, RWDD3 / RFU, BCAT1 / Fold change vs veh, BCAT1 / RFU, EDEM3 / Fold change vs veh, EDEM3 / RFU, TMEM33 / Fold change vs veh, TMEM33 / RFU, WDR75 / Fold change vs veh, WDR75 / RFU, AHCTF1 / Fold change vs veh, AHCTF1 / RFU, TFRC / Fold change vs veh, TFRC / RFU, ZDHHC17 / Fold change vs veh, ZDHHC17 / RFU, NOM1 / Fold change vs veh, NOM1 / RFU, ARL8B / Fold change vs veh, ARL8B / RFU, ZBTB11 / Fold change vs veh, ZBTB11 / RFU, TAMM41 / Fold change vs veh, TAMM41 / RFU, KIAA1704 /// LOC100996395 / Fold change vs veh, KIAA1704 /// LOC100996395 / RFU, ING1 / Fold change vs veh, ING1 / RFU, TRMT61B / Fold change vs veh, TRMT61B / RFU, FUBP3 / Fold change vs veh, FUBP3 / RFU, TP53 / Fold change vs veh, TP53 / RFU, TNKS2 / Fold change vs veh, TNKS2 / RFU, ZFP14 / Fold change vs veh, ZFP14 / RFU, ACTR2 / Fold change vs veh, ACTR2 / RFU, PPP3R1 / Fold change vs veh, PPP3R1 / RFU, PIK3R1 / Fold change vs veh, PIK3R1 / RFU, HNRNPA1 / Fold change vs veh, HNRNPA1 / RFU, RNF170 / Fold change vs veh, RNF170 / RFU, ZNF28 / Fold change vs veh, ZNF28 / RFU, RNGTT / Fold change vs veh, RNGTT / RFU, OGT / Fold change vs veh, OGT / RFU, BRD1 / Fold change vs veh, BRD1 / RFU, MARS / Fold change vs veh, MARS / RFU, ZNF655 / Fold change vs veh, ZNF655 / RFU, FAHD1 / Fold change vs veh, FAHD1 / RFU, BDP1 / Fold change vs veh, BDP1 / RFU, LRRCC1 / Fold change vs veh, LRRCC1 / RFU, ARID1A / Fold change vs veh, ARID1A / RFU, ZNF146 / Fold change vs veh, ZNF146 / RFU, ZNF330 / Fold change vs veh, ZNF330 / RFU, GPN3 / Fold change vs veh, GPN3 / RFU, C9orf123 / Fold change vs veh, C9orf123 / RFU, N4BP2L2 / Fold change vs veh, N4BP2L2 / RFU, ARFIP1 / Fold change vs veh, ARFIP1 / RFU, FAM179B / Fold change vs veh, FAM179B / RFU, BCL10 / Fold change vs veh, BCL10 / RFU, UHRF1BP1L / Fold change vs veh, UHRF1BP1L / RFU, BET1 / Fold change vs veh, BET1 / RFU, CNOT2 / Fold change vs veh, CNOT2 / RFU, ZNF268 / Fold change vs veh, ZNF268 / Fold change vs veh, ZNF507 / RFU, DGCR2 / Fold change vs veh, DGCR2 / RFU, WDSUB1 / Fold change vs veh, WDSUB1 / Fold change vs veh, HSP90B1 /// MIR3652 / RFU, ADSS / Fold change vs veh, ADSS / RFU, GK / Fold change vs veh, GK / RFU, ZNF148 / Fold change vs veh, ZNF148 / RFU, TAF9 / Fold change vs veh, TAF9 / RFU, SLC1A5 / Fold change vs veh, SLC1A5 / RFU, SLMO2 / Fold change vs veh, SLMO2 / RFU, ABCC4 / Fold change vs veh, ABCC4 / RFU, LOC101060439 /// RAP1B / Fold change vs veh, LOC101060439 /// RAP1B / RFU, RFX7 / Fold change vs veh, RFX7 / RFU, GTPBP10 / Fold change vs veh, GTPBP10 / RFU, CNEP1R1 / Fold change vs veh, CNEP1R1 / RFU, BIVM-ERCC5 /// ERCC5 / Fold change vs veh, BIVM-ERCC5 /// ERCC5 / RFU, ILF3 / Fold change vs veh, ILF3 / RFU 11762660_at / Fold change /veh 11762660_at / RFU VCAN (11757783_s_at) / Fold change /veh VCAN (11757783_s_at) / RFU DDX43 (11728927_at) / Fold change /veh DDX43 (11728927_at) / RFU KRT8 (11758188_x_at) / Fold change /veh KRT8 (11758188_x_at) / RFU NKD1 (11759106_at) / Fold change /veh NKD1 (11759106_at) / RFU SRD5A1 (11742802_a_at) / Fold change /veh SRD5A1 (11742802_a_at) / RFU TPSAB1 /// TPSB2 (11721975_s_at) / Fold change /veh TPSAB1 /// TPSB2 (11721975_s_at) / RFU GSTM3 (11746129_a_at) / Fold change /veh GSTM3 (11746129_a_at) / RFU IL23R (11737362_x_at) / Fold change /veh IL23R (11737362_x_at) / RFU TMEM51 (11727254_a_at) / Fold change /veh TMEM51 (11727254_a_at) / RFU PIWIL2 (11732686_x_at) / Fold change /veh PIWIL2 (11732686_x_at) / RFU ORM1 (11744905_x_at) / Fold change /veh ORM1 (11744905_x_at) / RFU CCDC152 (11743942_at) / Fold change /veh CCDC152 (11743942_at) / RFU ECM1 (11717891_a_at) / Fold change /veh ECM1 (11717891_a_at) / RFU IL23R (11748794_a_at) / Fold change /veh IL23R (11748794_a_at) / RFU TNFAIP8L3 (11732012_x_at) / Fold change /veh TNFAIP8L3 (11732012_x_at) / RFU MBOAT4 (11741988_at) / Fold change /veh MBOAT4 (11741988_at) / RFU 11764193_at / Fold change /veh 11764193_at / RFU TMEM53 (11763286_at) / Fold change /veh TMEM53 (11763286_at) / RFU MAGEB2 (11727129_at) / Fold change /veh MAGEB2 (11727129_at) / RFU TMEM200A (11744735_a_at) / Fold change /veh TMEM200A (11744735_a_at) / RFU CCDC152 (11751479_a_at) / Fold change /veh CCDC152 (11751479_a_at) / RFU FAM211A (11726209_a_at) / Fold change /veh FAM211A (11726209_a_at) / RFU RGS16 (11746705_a_at) / Fold change /veh RGS16 (11746705_a_at) / RFU VCAN (11755009_s_at) / Fold change /veh VCAN (11755009_s_at) / RFU RHOB (11743442_s_at) / Fold change /veh RHOB (11743442_s_at) / RFU RGS16 (11720943_a_at) / Fold change /veh RGS16 (11720943_a_at) / RFU RGS16 (11720944_at) / Fold change /veh RGS16 (11720944_at) / RFU, VPS4B / Fold change vs veh, VPS4B / RFU, CREB1 / Fold change vs veh, CREB1 / RFU, DNAJC13 / Fold change vs veh, DNAJC13 / RFU, GNAQ / Fold change vs veh, GNAQ / RFU, CDK5R1 / Fold change vs veh, CDK5R1 / RFU, ZRANB3 / Fold change vs veh, ZRANB3 / RFU, CUL4A / Fold change vs veh, CUL4A / RFU, CCNY / Fold change vs veh, CCNY / RFU, UFL1 / Fold change vs veh, UFL1 / RFU, COG3 / Fold change vs veh, COG3 / RFU, DIAPH2 / Fold change vs veh, DIAPH2 / RFU, SKA2 / Fold change vs veh, SKA2 / RFU, AFF3 / Fold change vs veh, AFF3 / RFU, LMF1 / Fold change vs veh, LMF1 / RFU, IPO11 / Fold change vs veh, IPO11 / RFU, DFFB / Fold change vs veh, DFFB / RFU, FOXP1 / Fold change vs veh, FOXP1 / RFU, CARD8 / Fold change vs veh, CARD8 / RFU, STRN3 / Fold change vs veh, STRN3 / RFU, ADK / Fold change vs veh, ADK / RFU, RASSF2 / Fold change vs veh, RASSF2 / RFU, WIPF1 / Fold change vs veh, WIPF1 / RFU, LARP1B / Fold change vs veh, LARP1B / RFU, RASA1 / Fold change vs veh, RASA1 / RFU, RB1 / Fold change vs veh, RB1 / RFU, PPFIA1 / Fold change vs veh, PPFIA1 / RFU, MAT2A / Fold change vs veh, MAT2A / RFU, CCT5 / Fold change vs veh, CCT5 / RFU, WDR92 / Fold change vs veh, WDR92 / RFU, CUX1 / Fold change vs veh, CUX1 / RFU, TTC7A / Fold change vs veh, TTC7A / RFU, TMEM135 / Fold change vs veh, TMEM135 / RFU, DEPTOR / Fold change vs veh, DEPTOR / RFU, CPM / Fold change vs veh, CPM / RFU, DNAJB6 / Fold change vs veh, DNAJB6 / RFU, CACNA2D3 / Fold change vs veh, CACNA2D3 / RFU, DTX4 / Fold change vs veh, DTX4 / RFU, TFCP2 / Fold change vs veh, TFCP2 / RFU, GMCL1 /// GMCL1P1 / Fold change vs veh, GMCL1 /// GMCL1P1 / RFU, AEBP2 / Fold change vs veh, AEBP2 / RFU, SNHG1 /// SNORD22 /// SNORD25 /// SNORD26 /// SNORD27 /// SNORD28 /// SNORD29 /// SNORD31 / Fold change vs veh, SNHG1 /// SNORD22 /// SNORD25 /// SNORD26 /// SNORD27 /// SNORD28 /// SNORD29 /// SNORD31 / Fold change (Aza/veh), C12orf56 (ProbeSet 11735607_a_at) / Fold change (ACY-1035/veh), C12orf56 (ProbeSet 11735607_a_at) / Fold change (Aza/veh), FGFR1OP (ProbeSet 11751329_s_at) / Fold change (ACY-1035/veh), FGFR1OP (ProbeSet 11751329_s_at) / Fold change (Aza/veh), VPS36 (ProbeSet 11739960_a_at) / Fold change (ACY-1035/veh), VPS36 (ProbeSet 11739960_a_at) / RFU SYPL1 (11715823_x_at) / Fold change /veh SYPL1 (11715823_x_at) / RFU IGFBP7 (11715501_s_at) / Fold change /veh IGFBP7 (11715501_s_at) / RFU REEP3 (11722064_at) / Fold change /veh REEP3 (11722064_at) / RFU IGLL1 (11728026_x_at) / Fold change /veh IGLL1 (11728026_x_at): dose or concentration left out as unconfirmed
Settings: ProbeSet 11719493_s_at; LIST B

Q: Which “RFU, TAF9” value does the source give for Nc1ncn([C@@H]2O[C@H](CO)[C@@H](O)[C@H]2O)c(=O)n1 [azacitidine] here?
A: 607.12 RFU
